# Where “and” joins values, the source holds several entries; their conditions need not be identical. Equal entries are not always repeated.
# Key:
# [1] = tested on: FXR; parameters: method as in PMID 12166927; details: read-out: EC50 (FXR agonist); cited from earlier work
# [2] = biological target: T1, human FXR-LBD (6His-FXR-LBD) (Homo sapiens, UniProt Q96RI1); assay: FXR protein affinity pull-down assay; type: binding; details: 100 nM OCA
# T1 construct: human FXR (residues 243–472) was expressed and purified as an amino-terminal 6His fusion protein; made in house; host or cells: E. coli BL21(DE3)
# T1 sequence (Q96RI1 243-472 isoform Q96RI1-2): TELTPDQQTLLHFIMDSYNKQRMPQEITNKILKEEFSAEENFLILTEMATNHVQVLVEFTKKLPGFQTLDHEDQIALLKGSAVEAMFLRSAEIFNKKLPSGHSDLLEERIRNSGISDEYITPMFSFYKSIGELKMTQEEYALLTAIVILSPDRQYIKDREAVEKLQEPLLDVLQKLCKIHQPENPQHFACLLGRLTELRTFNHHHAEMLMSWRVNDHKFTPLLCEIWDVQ
# Excerpt: The ligand binding domain (LBD) of human FXR (residues 243–472) was expressed and purified as an amino-terminal 6His fusion protein based on the prokaryotic expression vector pACYCDuet-1, and the pACYCDuet-1-6His-FXR-LBD plasmid was synthesized by the Beijing Genomics Institute (BGI). In detail, the gene encoding human FXR-LBD was first synthesized by BGI and then subcloned into the pACYCDuet-1 vector predigested with BamHI/NotI (SE0054/SE0594; SibEnzyme) according to the manufacturer’s protocol. In brief, the vector was predigested at 37°C for 15 min, subsequently mixed with the synthesized FXR-LBD cDNA and seamless assembly mix (BGI), and incubated at 52°C for 30 min. Then, the new plasmid construct pACYCDuet-1-6His-FXR-LBD was transformed into Escherichia coli Top10 Competent Cells (BGI) by heat shock transformation (the mixture was incubated on ice for 30 min, then incubated at 42°C for 90 s and transferred to ice for 3 min). Finally, the pACYCDuet-1-6His-FXR-LBD plasmid were extracted from the positive clone, confirmed by sequencing and provided by BGI. The pACYCDuet-1-6His-FXR-LBD plasmid was transformed into E. coli BL21(DE3) cells (Tiangen Biotech) by heat shock transformation (the mixture was incubated on ice for 30 min, then incubated at 42°C for 90 s, and then transferred to ice for 3 min). The transformed E. coli was grown in lysogeny broth (LB) medium at 37°C to OD600 about 0.8–1.0, and then protein expression was induced with 0.5 mM isopropyl β-d-1-thiogalactopyranoside (IPTG) at 25°C for 5 h. The cells were harvested by centrifugation at 4°C and 5,000×g for 10 min, and the harvested cells were subjected to ultrasonic disruption (5 s on, 7 s off, 150 cycles) using an ultrasonic homogenizer (Ningbo Scientz Biotechnology) and centrifugation at 4°C and 12,000×g for 1 h. […] Finally, the purity of the 6His-FXR-LBD protein was detected by sodium dodecyl sulfate-polyacrylamide gel electrophoresis (SDS-PAGE) with 4%–15% Bis-tris SDS-PAGE gel (Sangon Biotech), which was stained with Coomassie brilliant blue R250 Protein Stain Reagent (Coolaber). […]
# [3] = biological target: T2, human FXR-LBD (GST-FXR-LBD) (Homo sapiens, UniProt Q96RI1); assay: HTRF coactivator recruitment assay, agonist mode; type: biochemical; details: FXR agonists (Figure S3A), replicates
# T2 construct: the human FXR-LBD (residues 234–472) was expressed as a GST fusion protein GST-FXR-LBD; made in house; host or cells: E. coli BL21(DE3)
# T2 sequence (Q96RI1 234-472 isoform Q96RI1-2): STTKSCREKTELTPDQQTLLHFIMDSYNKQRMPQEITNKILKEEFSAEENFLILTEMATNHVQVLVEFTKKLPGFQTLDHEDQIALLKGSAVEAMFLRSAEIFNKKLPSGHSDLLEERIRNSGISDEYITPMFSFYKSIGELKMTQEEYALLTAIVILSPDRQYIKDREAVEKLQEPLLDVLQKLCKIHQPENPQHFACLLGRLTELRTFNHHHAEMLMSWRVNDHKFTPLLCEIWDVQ
# [4] = biological target: T2, human FXR-LBD (GST-FXR-LBD); assay: HTRF coactivator recruitment assay, antagonist mode (in the presence of 50 μM CDCA); type: biochemical; details: FXR antagonists (Figure S3B), replicates
smiles,measurement,setting,value
"CC[C@H]1[C@@H](O)[C@@H]2[C@H](CC[C@]3(C)[C@@H]([C@H](C)CCC(=O)O)CC[C@@H]23)[C@@]2(C)CC[C@@H](O)C[C@@H]12 [OCA, obeticholic acid]",EC50,[1],[…]
same,Recovery of OCA pulled down by control protein,"[2]; boiled inactivated (denatured) FXR-LBD as negative control, n=3",4.69% and 4.09% and 4.45%
same,Recovery of OCA pulled down by the FXR-LBD protein,"[2]; purified 6His-FXR-LBD, n=3",91.28% and 89.1% and 85.93%

# Reference: publication PMC12010937, “Evaluation of FXR Activity in Pollutants Identified in Sewage Sludge and Subsequent in Vitro and in Vivo Characterization of Metabolic Effects of Triphenyl Phosphate” (Environmental Health Perspectives, 2025)
